# Experimental data reported in ChEMBL document CHEMBL5154654, “Design, synthesis and biological evaluation of 7-((7H-pyrrolo[2,3-d]pyrimidin-4-yl)oxy)-2,3-dihydro-1H-inden-1-one derivatives as potent FAK inhibitors for the treatment of ovarian cancer” (Eur J Med Chem, 2022).
# Active and inactive are the calls of the source. The calls are words filed in the database; no cut-off is given here.
# Legend:
# [1] = target: Receptor-type tyrosine-protein kinase FLT3 (Homo sapiens) (UniProt P36888); experiment: Inhibition of FLT3 (unknown origin) at 1 uM incubated for 40 mins in presence of Mg/ATP mix relative to control
# [2] = species: Homo sapiens; experiment: Inhibition of MEK (unknown origin) at 1 uM incubated for 40 mins in presence of Mg/ATP mix relative to control
# [3] = target: T1, Focal adhesion kinase 1 (Homo sapiens, UniProt Q05397); experiment: Inhibition of FAK (unknown origin) using Fluorescein-Poly GAT as substrate incubated for 30 mins and measured after 60 mins by Lanthascreen assay
# Target sequence in this assay (Q05397 whole entry): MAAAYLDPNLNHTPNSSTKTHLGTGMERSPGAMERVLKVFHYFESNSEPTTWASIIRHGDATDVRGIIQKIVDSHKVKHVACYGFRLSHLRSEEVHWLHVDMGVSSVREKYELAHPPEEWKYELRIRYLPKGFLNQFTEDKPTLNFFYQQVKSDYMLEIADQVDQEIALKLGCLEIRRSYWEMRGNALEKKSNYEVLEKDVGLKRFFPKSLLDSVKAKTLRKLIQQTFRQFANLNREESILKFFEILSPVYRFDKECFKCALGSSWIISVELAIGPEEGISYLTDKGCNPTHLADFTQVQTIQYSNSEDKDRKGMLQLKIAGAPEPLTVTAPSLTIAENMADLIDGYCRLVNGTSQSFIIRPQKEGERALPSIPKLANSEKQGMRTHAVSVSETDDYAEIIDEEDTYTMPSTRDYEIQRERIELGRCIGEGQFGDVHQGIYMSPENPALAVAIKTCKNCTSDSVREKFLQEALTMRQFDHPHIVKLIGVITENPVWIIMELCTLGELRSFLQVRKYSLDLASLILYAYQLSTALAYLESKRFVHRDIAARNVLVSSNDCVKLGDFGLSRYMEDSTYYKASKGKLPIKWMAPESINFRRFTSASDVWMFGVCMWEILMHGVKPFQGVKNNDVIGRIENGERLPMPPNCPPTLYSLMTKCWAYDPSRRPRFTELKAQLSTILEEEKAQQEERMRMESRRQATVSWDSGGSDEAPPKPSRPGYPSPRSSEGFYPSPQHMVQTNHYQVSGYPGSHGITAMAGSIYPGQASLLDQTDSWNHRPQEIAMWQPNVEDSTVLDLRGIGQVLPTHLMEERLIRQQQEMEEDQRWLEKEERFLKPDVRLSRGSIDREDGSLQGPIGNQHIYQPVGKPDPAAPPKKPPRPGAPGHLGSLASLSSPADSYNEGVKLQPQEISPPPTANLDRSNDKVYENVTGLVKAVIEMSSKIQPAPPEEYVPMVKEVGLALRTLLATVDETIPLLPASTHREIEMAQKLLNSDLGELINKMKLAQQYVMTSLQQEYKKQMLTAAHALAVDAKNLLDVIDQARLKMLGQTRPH
# [4] = test system: PA-1; experiment: Inhibition of migration of human PA-1 cells at 2 uM measured after 24 hrs by Transwell assay; assay type: functional, cell-based
# [5] = Metabolic stability in human liver microsomes assessed as parent compound remaining incubated for 120 mins in presence of NADPH by LC-MS/MS analysis; assay type: ADME, Microsome; conditions: read-out: Stability
# [6] = Toxicity in female BALB/c nude mouse xenografted with human PA-1 cells assessed as effect on body weight at 60 mg/kg, po administered once daily for 21 days; assay type: organism-based; conditions: in vivo, 504 h, time 21 day
# [7] = Cmax in Sprague-Dawley rat at 20 mg/kg, po; assay type: ADME, organism-based; set-up: dose 20 mg/kg, route po; conditions: in vivo
# [8] = target: T1, Focal adhesion kinase 1; conditions: PA-1, dose 10.0 nM
# Target sequence in this assay (Q05397 2-1052 limits assumed): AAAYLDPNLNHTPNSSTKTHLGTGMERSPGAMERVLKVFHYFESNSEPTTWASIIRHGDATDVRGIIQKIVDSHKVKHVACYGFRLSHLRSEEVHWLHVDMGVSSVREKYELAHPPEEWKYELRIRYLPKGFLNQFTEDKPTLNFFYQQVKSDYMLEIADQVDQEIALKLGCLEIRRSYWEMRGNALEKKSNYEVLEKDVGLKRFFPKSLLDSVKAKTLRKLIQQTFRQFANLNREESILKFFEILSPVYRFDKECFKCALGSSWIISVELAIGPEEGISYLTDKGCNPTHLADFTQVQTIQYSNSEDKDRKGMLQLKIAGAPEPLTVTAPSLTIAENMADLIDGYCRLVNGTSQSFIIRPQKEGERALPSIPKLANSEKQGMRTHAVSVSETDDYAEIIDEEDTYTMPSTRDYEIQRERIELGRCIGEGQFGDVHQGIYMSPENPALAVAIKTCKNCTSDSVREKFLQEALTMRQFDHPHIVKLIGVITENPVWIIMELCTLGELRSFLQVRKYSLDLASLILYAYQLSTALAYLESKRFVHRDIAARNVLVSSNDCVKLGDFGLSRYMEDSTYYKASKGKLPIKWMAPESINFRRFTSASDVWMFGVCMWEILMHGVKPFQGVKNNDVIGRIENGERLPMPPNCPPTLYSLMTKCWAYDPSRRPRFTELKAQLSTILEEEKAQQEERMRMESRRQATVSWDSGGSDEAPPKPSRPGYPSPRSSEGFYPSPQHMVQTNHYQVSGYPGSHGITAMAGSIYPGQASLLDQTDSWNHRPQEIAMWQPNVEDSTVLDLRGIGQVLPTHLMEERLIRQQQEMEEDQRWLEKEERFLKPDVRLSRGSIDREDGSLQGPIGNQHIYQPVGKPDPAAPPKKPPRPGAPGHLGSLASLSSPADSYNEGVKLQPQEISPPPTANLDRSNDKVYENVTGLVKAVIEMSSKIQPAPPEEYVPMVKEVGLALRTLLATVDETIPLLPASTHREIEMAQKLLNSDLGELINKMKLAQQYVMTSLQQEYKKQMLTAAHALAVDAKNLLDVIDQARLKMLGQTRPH
# Description: Inhibition of FAK in human PA-1 cells assessed as suppression of FAK autophosphorylation at 10 nM and measured by Western blotting analysis
# [9] = Toxicity in female BALB/c nude mouse xenografted with human PA-1 cells assessed as kidney damage at 60 mg/kg, po administered once daily for 21 days; assay type: organism-based; conditions: in vivo, 504 h, time 21 day
# [10] = target: Serine/threonine-protein kinase 33 (Homo sapiens) (UniProt Q9BYT3); experiment: Inhibition of STK33 (unknown origin) at 1 uM incubated for 40 mins in presence of Mg/ATP mix relative to control
# [11] = target: Dual specificity protein kinase CLK4 (Homo sapiens) (UniProt Q9HAZ1); experiment: Inhibition of CLK4 (unknown origin) at 1 uM incubated for 40 mins in presence of Mg/ATP mix relative to control
# [12] = test system: PA-1; experiment: Down-regulation of MMP-2 expression in human PA-1 cells at 2 uM measured after 0.5 to 6 hrs; assay type: functional, cell-based; conditions: time 0.5-6 hrs
# [13] = test system: ES-2; experiment: Antimetastatic activity against human ES2 cells xenografted in mouse assessed as decrease in the number of peritoneal nodules at 60 mg/kg, po administered daily for 12 days; assay type: functional, organism-based; conditions: time 12.0 day
# [14] = AUC (total) in Sprague-Dawley rat at 20 mg/kg, po; assay type: ADME, organism-based; set-up: dose 20 mg/kg, route po; conditions: in vivo
# [15] = Aqueous solubility of compound; assay type: physicochemical; conditions: aqueous (not further specified)
# [16] = target: Tyrosine-protein kinase Fes/Fps (Homo sapiens) (UniProt P07332); experiment: Inhibition of Fes (unknown origin) at 1 uM incubated for 40 mins in presence of Mg/ATP mix relative to control
# [17] = Metabolic stability in human liver microsomes assessed as half-life incubated for 120 mins in presence of NADPH by LC-MS/MS analysis; assay type: ADME, Microsome
# [18] = test system: PA-1; experiment: Down-regulation of MMP-9 expression in human PA-1 cells at 2 uM measured after 0.5 to 6 hrs; assay type: functional, cell-based; conditions: time 0.5-6 hrs
# [19] = Toxicity in female BALB/c nude mouse xenografted with human PA-1 cells assessed as spleen damage at 60 mg/kg, po administered once daily for 21 days; assay type: organism-based; conditions: in vivo, 504 h, time 21 day
# [20] = target: ALK tyrosine kinase receptor (Homo sapiens) (UniProt Q9UM73); experiment: Inhibition of ALK (unknown origin) at 1 uM incubated for 40 mins in presence of Mg/ATP mix relative to control
# [21] = target: Leucine-rich repeat serine/threonine-protein kinase 2 (Homo sapiens) (UniProt Q5S007); experiment: Inhibition of LRRK2 (unknown origin) at 1 uM incubated for 40 mins in presence of Mg/ATP mix relative to control
# [22] = test system: PA-1; experiment: Inhibition of invasion of human PA-1 cells at 2 uM measured after 24 hrs by Transwell assay; assay type: functional, cell-based
# [23] = Toxicity in female BALB/c nude mouse xenografted with human PA-1 cells assessed as liver damage at 60 mg/kg, po administered once daily for 21 days; assay type: organism-based; conditions: in vivo, 504 h, time 21 day
# [24] = test system: PA-1; experiment: Antitumor activity against human PA-1 cells xenografted in female BALB/c nude mouse assessed tumor growth inhibition at 60 mg/kg, po administered once daily for 21 days; assay type: functional; conditions: PA-1, 504 h, time 21 day, read-out: TGI
# [25] = target: Dual specificity protein kinase CLK1 (Homo sapiens) (UniProt P49759); experiment: Inhibition of CLK1 (unknown origin) at 1 uM incubated for 40 mins in presence of Mg/ATP mix relative to control
# [26] = Half-life in Sprague-Dawley rat at 20 mg/kg, po; assay type: ADME, organism-based; conditions: in vivo
# [27] = Toxicity in female BALB/c nude mouse xenografted with human PA-1 cells assessed as heart damage at 60 mg/kg, po administered once daily for 21 days; assay type: organism-based; conditions: in vivo, 504 h, time 21 day
# [28] = Tmax in Sprague-Dawley rat at 20 mg/kg, po; assay type: ADME, organism-based; conditions: in vivo
# [29] = Metabolic stability in human liver microsomes assessed as intrinsic clearance incubated for 120 mins in presence of NADPH by LC-MS/MS analysis; assay type: ADME, Microsome; conditions: read-out: CLH
# [30] = Toxicity in female BALB/c nude mouse xenografted with human PA-1 cells assessed as lung damage at 60 mg/kg, po administered once daily for 21 days; assay type: organism-based; conditions: in vivo, 504 h, time 21 day
# [31] = AUClast in Sprague-Dawley rat at 20 mg/kg, po; assay type: ADME, organism-based; set-up: time 0 - last, dose 20 mg/kg, route po; conditions: in vivo
# Sequence of Dual specificity protein kinase CLK1 (Homo sapiens) (P49759 whole entry, looked up): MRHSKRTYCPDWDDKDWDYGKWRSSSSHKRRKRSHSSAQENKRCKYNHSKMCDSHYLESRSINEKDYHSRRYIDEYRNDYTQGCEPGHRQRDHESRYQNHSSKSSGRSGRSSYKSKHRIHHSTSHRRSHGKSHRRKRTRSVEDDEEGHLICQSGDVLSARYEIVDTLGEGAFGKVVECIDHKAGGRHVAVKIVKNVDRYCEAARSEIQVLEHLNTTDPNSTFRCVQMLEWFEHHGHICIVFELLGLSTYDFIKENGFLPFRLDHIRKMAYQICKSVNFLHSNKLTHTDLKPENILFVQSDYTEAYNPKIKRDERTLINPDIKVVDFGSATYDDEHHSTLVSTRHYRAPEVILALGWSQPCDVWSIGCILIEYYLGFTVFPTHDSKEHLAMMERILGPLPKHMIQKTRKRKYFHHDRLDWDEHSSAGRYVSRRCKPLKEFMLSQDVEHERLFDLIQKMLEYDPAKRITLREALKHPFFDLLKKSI
# Sequence of Dual specificity protein kinase CLK4 (Homo sapiens) (Q9HAZ1 whole entry, looked up): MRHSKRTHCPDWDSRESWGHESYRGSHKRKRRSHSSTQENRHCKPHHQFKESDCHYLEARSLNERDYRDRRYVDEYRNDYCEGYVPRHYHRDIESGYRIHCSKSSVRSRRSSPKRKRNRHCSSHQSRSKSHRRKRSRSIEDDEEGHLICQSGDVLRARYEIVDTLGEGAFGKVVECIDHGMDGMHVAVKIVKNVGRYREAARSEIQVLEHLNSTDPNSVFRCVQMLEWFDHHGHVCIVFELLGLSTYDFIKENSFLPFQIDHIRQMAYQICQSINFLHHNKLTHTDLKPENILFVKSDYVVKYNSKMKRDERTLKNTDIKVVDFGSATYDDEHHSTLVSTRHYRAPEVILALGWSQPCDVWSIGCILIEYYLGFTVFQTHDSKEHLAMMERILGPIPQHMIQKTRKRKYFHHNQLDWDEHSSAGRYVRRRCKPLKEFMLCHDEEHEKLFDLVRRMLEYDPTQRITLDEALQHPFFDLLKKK
# Sequence of Serine/threonine-protein kinase 33 (Homo sapiens) (Q9BYT3 whole entry, looked up): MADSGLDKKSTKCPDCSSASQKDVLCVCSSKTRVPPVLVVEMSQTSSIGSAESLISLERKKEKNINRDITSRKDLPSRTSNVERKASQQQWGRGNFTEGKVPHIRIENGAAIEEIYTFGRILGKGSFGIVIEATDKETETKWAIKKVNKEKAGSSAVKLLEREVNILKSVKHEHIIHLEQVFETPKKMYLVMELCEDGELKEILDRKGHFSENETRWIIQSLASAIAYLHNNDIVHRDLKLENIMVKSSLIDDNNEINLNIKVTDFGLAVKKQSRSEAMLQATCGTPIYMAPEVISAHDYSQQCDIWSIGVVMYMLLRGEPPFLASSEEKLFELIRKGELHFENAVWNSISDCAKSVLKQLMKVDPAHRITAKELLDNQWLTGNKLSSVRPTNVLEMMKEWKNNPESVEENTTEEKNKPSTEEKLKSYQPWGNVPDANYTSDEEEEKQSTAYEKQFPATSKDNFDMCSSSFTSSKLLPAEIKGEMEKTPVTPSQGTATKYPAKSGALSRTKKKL
# Sequence of Tyrosine-protein kinase Fes/Fps (Homo sapiens) (P07332 whole entry): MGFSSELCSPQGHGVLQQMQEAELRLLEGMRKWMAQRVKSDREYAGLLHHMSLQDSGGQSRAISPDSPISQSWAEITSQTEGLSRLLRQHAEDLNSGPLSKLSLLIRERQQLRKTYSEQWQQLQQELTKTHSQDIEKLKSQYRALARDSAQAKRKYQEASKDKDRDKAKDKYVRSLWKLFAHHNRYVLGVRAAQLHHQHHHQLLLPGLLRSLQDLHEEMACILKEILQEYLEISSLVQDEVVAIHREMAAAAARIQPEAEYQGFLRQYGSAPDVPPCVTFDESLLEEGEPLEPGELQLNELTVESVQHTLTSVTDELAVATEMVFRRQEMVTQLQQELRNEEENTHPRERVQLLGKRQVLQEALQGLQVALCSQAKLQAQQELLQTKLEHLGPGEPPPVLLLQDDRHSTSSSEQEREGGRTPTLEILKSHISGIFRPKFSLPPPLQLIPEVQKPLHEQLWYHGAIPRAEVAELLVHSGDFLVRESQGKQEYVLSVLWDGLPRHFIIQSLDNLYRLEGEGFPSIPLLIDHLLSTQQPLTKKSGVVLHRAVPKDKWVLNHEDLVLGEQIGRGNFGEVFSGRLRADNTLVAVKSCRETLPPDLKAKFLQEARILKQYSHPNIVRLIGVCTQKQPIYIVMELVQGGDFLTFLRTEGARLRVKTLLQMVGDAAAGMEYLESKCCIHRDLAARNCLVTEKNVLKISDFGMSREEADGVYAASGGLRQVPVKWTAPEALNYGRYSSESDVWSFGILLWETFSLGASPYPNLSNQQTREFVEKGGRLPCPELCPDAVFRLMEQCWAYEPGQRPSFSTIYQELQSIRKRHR
smiles,measurement,setting,value
CNC(=O)c1ccc(Nc2ncc(C(F)(F)F)c(NCc3nccnc3N(C)S(C)(=O)=O)n2)cc1,inhibition,[1],> 90%
same,inhibition,[2],> 90%
COc1cc(N2CCN(C)CC2)ccc1Nc1nc(-n2ccc3ccccc32)c2cc[nH]c2n1,IC50,[3],166 nM
CN1CCN(c2ccc(Nc3nc(Oc4cccc5c4C(=O)CC5)c4ccccc4n3)cc2)CC1,IC50,[3],> 1000 nM
CN1CCN(c2ccc(Nc3nc(Oc4cccc5c4C(=O)CC5)c4cc[nH]c4n3)c(C(F)(F)F)c2)CC1,IC50,[3],99.8 nM
COc1cc(N2CCC(N3CCN(C)CC3)CC2)ccc1Nc1nc(-n2ccc3ccccc32)c2cc[nH]c2n1,IC50,[3],144 nM
COc1nc(N2CCN(C)CC2)ccc1Nc1nc(Oc2cccc3c2C(=O)CC3)c2cc[nH]c2n1,IC50,[3],9.05 nM
O=C1CCc2cccc(Oc3nc(Nc4ccc(N5CCOCC5)cc4)nc4[nH]ccc34)c21,IC50,[3],12.2 nM
O=C1CCc2cccc(Oc3nc(Nc4ccc(N5CCOCC5)cc4)nc4sccc34)c21,IC50,[3],> 1000 nM
COc1cc(N2CCN(C)CC2)ccc1Nc1nc(-c2cnn(C)c2)c2cc[nH]c2n1,IC50,[3],330 nM
CN1CCN(c2ccc(Nc3nc(Oc4cccc5c4C(=O)CC5)c4cc[nH]c4n3)cc2F)CC1,IC50,[3],5.64 nM
CN1CCN(c2ccc(Nc3nc(Oc4cccc5c4C(=O)CC5)c4sccc4n3)cc2)CC1,IC50,[3],110 nM
COc1cc(N2CCOCC2)ccc1Nc1nc(Oc2cccc3c2C(=O)CC3)c2ccsc2n1,IC50,[3],> 1000 nM
COc1cc(N2CCOCC2)ccc1Nc1nc(Oc2cccc3c2C(=O)CC3)c2sccc2n1,IC50,[3],113 nM
CN1CCN(c2ccc(Nc3nc(Oc4cccc5c4C(=O)CC5)c4cc[nH]c4n3)cc2C#N)CC1,IC50,[3],20.6 nM
COc1cc(C(=O)NC2CCNCC2)ccc1Nc1nc(Oc2cccc3c2C(=O)CC3)c2cc[nH]c2n1,inhibition,[4],Active
same,remaining at 2 h,[5],48.6%
same,Activity,[6],Non-Toxic
same,Cmax,[7],21.7 ng/mL
same,inhibition,[8],Active
same,Activity,[9],Non-Toxic
same,inhibition,[10],92%
same,inhibition,[11],97%
same,Activity,[12],Active
same,Activity,[13],Active
same,AUC,[14],78.8 ng·h/mL
same,solubility,[15],456 µg/mL
same,inhibition,[16],96%
same,half-life,[17],1.88 h
same,Activity,[18],Active
same,Activity,[19],Non-Toxic
same,inhibition,[20],87%
same,inhibition,[21],100%
same,IC50,[3],1.89 nM
same,inhibition,[22],Active
same,Activity,[23],Non-Toxic
same,inhibition in vivo at 60 mg/kg,[24],72.5%
same,inhibition,[25],92%
same,half-life,[26],4.08 h
same,Activity,[27],Non-Toxic
same,Tmax,[28],0.28 h
same,CLint scaled,[29],7.7 mL/min/kg
same,Activity,[30],Non-Toxic
same,AUC(0-t),[31],59.6 ng·h/mL
Cc1cc(Nc2nc(Oc3cccc4c3C(=O)CC4)c3cc[nH]c3n2)ccc1N1CCN(C2COC2)CC1,IC50,[3],6.32 nM
COc1cc(N2CCC(N3CCN(C)CC3)CC2)ccc1Nc1nc(Oc2cccc3c2C(=O)CC3)c2sccc2n1,IC50,[3],27.4 nM
CN1CCN(C2CCN(c3ccc(Nc4nc(Oc5cccc6c5C(=O)CC6)c5cc[nH]c5n4)cc3)CC2)CC1,remaining at 2 h,[5],42.2%
same,solubility,[15],39.4 µg/mL
same,half-life,[17],1.55 h
same,IC50,[3],2.91 nM
same,CLint scaled,[29],93 mL/min/kg
Cc1cc(Nc2nc(Oc3cccc4c3C(=O)CC4)c3cc[nH]c3n2)ccc1OCCN(C)C,remaining at 2 h,[5],19.8%
same,solubility,[15],9.3 µg/mL
same,half-life,[17],0.867 h
same,IC50,[3],3.93 nM
same,CLint scaled,[29],16.7 mL/min/kg
COc1cc(N2CCN(C)CC2)ccc1Nc1nc(Oc2cccc3c2C(=O)CC3)c2ccsc2n1,IC50,[3],> 1000 nM
COc1cc(N2C[C@@H]3C[C@H]2CO3)ccc1Nc1nc(Oc2cccc3c2C(=O)CC3)c2cc[nH]c2n1,IC50,[3],9.6 nM
O=C1NCc2cc(Nc3nc(Oc4cccc5c4C(=O)CC5)c4cc[nH]c4n3)ccc21,IC50,[3],20.6 nM
CN1CCN(c2ccc(Nc3nc(Oc4cccc5c4C(=O)CC5)c4cc[nH]c4n3)cc2Cl)CC1,remaining at 2 h,[5],15.7%
same,half-life,[17],0.775 h
same,IC50,[3],4.8 nM
same,CLint scaled,[29],18.7 mL/min/kg
Cc1cc(N2CCN(C)CC2)ccc1Nc1nc(Oc2cccc3c2C(=O)CC3)c2cc[nH]c2n1,IC50,[3],7.13 nM
COc1cc(N2CCC(N3CCN(C)CC3)CC2)ccc1Nc1nc(Oc2cccc3c2C(=O)CC3)c2ccsc2n1,IC50,[3],945 nM
